Assay results taken from ChEMBL document CHEMBL4627343, “High throughput in vivo phenotypic screening for drug repurposing: Discovery of MLR-1023 a novel insulin sensitizer and novel Lyn kinase activator with clinical proof of concept” (Bioorg Med Chem, 2020).
pEC50: −log10 of the molar value.

Key:
[1] = Drug uptake in human brain; type: ADME, tissue-based
[2] = Tmax in ip dosed […] administered twice daily; type: ADME, organism-based; details: in vivo
[3] = Cmax in ip dosed […] administered twice daily; type: ADME, organism-based; parameters: route intraperitoneal; details: in vivo
[4] = biological target: Tyrosine-protein kinase Lyn (Homo sapiens, UniProt P07948); assay: […] of Lyn (unknown origin)
Tyrosine-protein kinase Lyn, sequence (P07948 whole entry): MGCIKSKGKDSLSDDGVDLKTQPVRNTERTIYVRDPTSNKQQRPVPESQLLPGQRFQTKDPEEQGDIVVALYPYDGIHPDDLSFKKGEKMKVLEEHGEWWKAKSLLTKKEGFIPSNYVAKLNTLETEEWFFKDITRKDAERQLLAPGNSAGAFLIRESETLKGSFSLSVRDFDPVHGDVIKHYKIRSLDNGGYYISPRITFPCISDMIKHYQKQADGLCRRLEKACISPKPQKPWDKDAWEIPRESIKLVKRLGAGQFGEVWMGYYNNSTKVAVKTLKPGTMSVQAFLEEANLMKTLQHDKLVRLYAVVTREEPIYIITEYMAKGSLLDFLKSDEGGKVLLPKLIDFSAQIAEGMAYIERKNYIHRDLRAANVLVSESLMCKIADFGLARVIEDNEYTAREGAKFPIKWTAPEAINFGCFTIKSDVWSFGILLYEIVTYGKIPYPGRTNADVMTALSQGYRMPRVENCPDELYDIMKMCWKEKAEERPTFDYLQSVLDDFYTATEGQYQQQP

[5] = AUC in ip dosed […] administered twice daily; type: ADME, organism-based; details: in vivo
[6] = Toxicity in ip dosed […] administered twice daily; type: organism-based; details: in vivo
[7] = Bioavailability in ip dosed […] administered twice daily; type: ADME, organism-based; details: in vivo

Cc1cccc(Oc2cnc(=O)[nH]c2)c1 [TOLIMIDONE]
Drug uptake [1]: 1.3% | Tmax [2]: 15 min | Cmax [3]: 6540 ng/mL | pEC50 [4]: 7.20 | AUC [5]: 4780 ng·h/mL | MTD [6]: 100 mg/kg | bioavailability [7]: 53.9%
